Source: patent US8507010B2, “Compositions comprising quinazoline derivatives” (Shanghai Allist Pharmaceuticals, Inc., priority 2008, dated 2013)

Experiments:
[1] = in vivo; conditions: male, SD, rat
Procedure: Intragastric administration (ig): 16 healthy SD rats (Shanghai Super-B&K Laboratory Animal Corp. Ltd., grade SPF), male, weighted 200-250 g, randomly divided into four groups, were each administered intragastrically with a drug: the compound prepared according to Example 1 (21.68 mg/kg), crystalline form A, crystalline form B, or crystalline form C (30 mg/kg) of p-toluenesulfonate of said compound. The blood samples were collected at 0.5 h, 1.0 h, 1.5 h, 2.0 h, 3.0 h, 5.0 h, 7.0 h, 9.0 h, 12 h, and 24 h after administration, which were then isolated to prepare the plasma. The concentrations of the drugs in the plasma were determined by means of liquid phase chromatography/tandem mass spectrometer (Agilent 1200LC/6410B), and the concentration-time curve was obtained.

[2] = system: human epidermoid squamous carcinoma cell A431; conditions: stated in CN 200610023526.7 / WO 2007/082434; cited from earlier work
[3] = system: human epidermoid squamous carcinoma cell A431; conditions: stated in CN 200610023526.7 / WO 2007/082434; cited from earlier work; remark: listed apart in the source
[4] = biological target: erbB-2 kinase (Homo sapiens, UniProt P04626); conditions: stated in CN 200610023526.7 / WO 2007/082434; cited from earlier work
Sequence of erbB-2 kinase (P04626 23-1255): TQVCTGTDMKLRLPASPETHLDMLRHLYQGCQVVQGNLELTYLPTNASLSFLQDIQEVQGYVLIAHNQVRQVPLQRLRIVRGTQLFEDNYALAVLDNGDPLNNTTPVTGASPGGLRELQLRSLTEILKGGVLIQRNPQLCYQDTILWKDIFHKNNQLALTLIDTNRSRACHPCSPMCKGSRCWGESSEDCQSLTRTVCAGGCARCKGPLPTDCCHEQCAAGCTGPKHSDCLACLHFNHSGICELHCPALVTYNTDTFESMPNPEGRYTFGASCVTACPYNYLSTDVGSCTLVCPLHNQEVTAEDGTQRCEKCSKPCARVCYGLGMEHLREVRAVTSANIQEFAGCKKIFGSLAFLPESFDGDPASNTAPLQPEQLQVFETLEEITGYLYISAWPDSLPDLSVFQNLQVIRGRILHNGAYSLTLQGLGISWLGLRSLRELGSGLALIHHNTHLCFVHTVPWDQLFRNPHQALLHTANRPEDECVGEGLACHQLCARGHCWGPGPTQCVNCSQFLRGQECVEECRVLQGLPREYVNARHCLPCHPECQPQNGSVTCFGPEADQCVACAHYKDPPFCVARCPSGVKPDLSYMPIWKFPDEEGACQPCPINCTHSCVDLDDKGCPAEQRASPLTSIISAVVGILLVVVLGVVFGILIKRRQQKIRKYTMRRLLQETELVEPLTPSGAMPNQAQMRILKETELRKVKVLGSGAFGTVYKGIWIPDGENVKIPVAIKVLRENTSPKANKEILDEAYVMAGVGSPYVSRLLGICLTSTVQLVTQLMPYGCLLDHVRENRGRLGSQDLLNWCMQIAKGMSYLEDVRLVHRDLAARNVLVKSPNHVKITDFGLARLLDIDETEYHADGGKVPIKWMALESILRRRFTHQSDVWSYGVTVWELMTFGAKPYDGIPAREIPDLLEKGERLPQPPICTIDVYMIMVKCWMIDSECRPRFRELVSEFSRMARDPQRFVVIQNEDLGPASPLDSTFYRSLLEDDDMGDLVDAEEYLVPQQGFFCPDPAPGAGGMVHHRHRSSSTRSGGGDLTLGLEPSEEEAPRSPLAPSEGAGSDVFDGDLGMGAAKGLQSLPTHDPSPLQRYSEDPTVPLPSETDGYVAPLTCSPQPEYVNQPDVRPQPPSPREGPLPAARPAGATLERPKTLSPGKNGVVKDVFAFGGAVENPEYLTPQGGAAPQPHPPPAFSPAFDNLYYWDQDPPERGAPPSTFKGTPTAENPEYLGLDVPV

[5] = system: human breast cancer cell BT-474; conditions: stated in CN 200610023526.7 / WO 2007/082434; cited from earlier work

C=CC(=O)Nc1ccc2ncnc(Nc3ccc(OCc4cccc(F)c4)c(Cl)c3)c2c1 [The compound of Example 1, N-{4-[3-chloro-4-(3-fluoro-benzyloxy)phenylamino]quinazolin-6-yl}-acrylamide]
bioavailability ([1]; absolute bioavailability): 0.95%
AUC(0-t) ([1]; po, 21.68 mg/kg, AUC0-t): 106 ng·h/mL
Cmax ([1]; po, 21.68 mg/kg, Cmax): 32 ng/mL
half-life ([1]; po, 21.68 mg/kg, T1/2): 1.81 h
Tmax ([1]; po, 21.68 mg/kg, Tmax): 0.75 h
anti-tumor effect on A431 grafted to a nude mouse (in words) [2]: obvious anti-tumor effect
inhibitory effect on growth of A431 cells (in words) [3]: remarkable inhibitory effect
inhibitory activity against erbB-2 kinase (in words) [4]: excellent inhibitory activity
inhibitory effect on growth of BT-474 cells (in words) [5]: remarkable inhibitory effect
